Here are results for 1 cell line from the supplement of paper PMC10307832.

What all share (assay): relative viability (nuclei count vs DMSO), 5 days (fraction); higher = more cells survive
Compound in assay [1]: Cc1ccc(C(=O)Nc2ccc(CN3CCN(C)CC3)c(C(F)(F)F)c2)cc1C#Cc1cnc2cccnn12 [Ponatinib] + Nc1ncn([C@H]2C[C@H](O)[C@@H](CO)O2)c(=O)n1 [Decitabine] (partner 2 µM)
An outline of the steps: (§1)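 One day after seeding in 1536-well plates, lung cancer cell lines were dosed by pin tool. Dosing was either single-drug or a fixed anchor-drug dose plus five library-drug doses (not always all listed) in √10 steps. After 5 days, nuclei were stained in one fix-and-stain step and counted on 4× images, and relative viability is the nuclei count of treated wells over that of vehicle wells, given as the median of duplicate plates.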

Compound in assay [2]: Cc1ccc(Nc2nccc(N(C)c3ccc4c(C)n(C)nc4c3)n2)cc1S(N)(=O)=O [Pazopanib] + C[C@@H](Oc1cc(-c2cnn(C3CCNCC3)c2)cnc1N)c1c(Cl)ccc(F)c1Cl [Crizotinib] (partner 1 µM)
An outline of the steps: as §1

Compound in assay [3]: Cc1ccc(Nc2nccc(N(C)c3ccc4c(C)n(C)nc4c3)n2)cc1S(N)(=O)=O [Pazopanib] + C[C@]1(O)C[C@@H](c2nc(-c3ccc4ccc(-c5ccccc5)nc4c3)c3c(N)nccn32)C1 [Linsitinib] (partner 1 µM)
The procedure, abridged: as §1

Compound in assay [4]: Cc1ccc(Nc2nccc(N(C)c3ccc4c(C)n(C)nc4c3)n2)cc1S(N)(=O)=O [Pazopanib] + Cc1nc(NC(=O)N2CCC[C@H]2C(N)=O)sc1-c1ccnc(C(C)(C)C(F)(F)F)c1 [Alpelisib] (partner 2 µM)
An outline of the steps:
as §1

For UMC-11, the relative viability in assay [1] (first compound 0.006325 µM) came out at 0.595; in assay [1] (first compound 0.06325 µM) it was 0.709; in assay [1] (first compound 0.2 µM), 0.575; in assay [2] (first compound 0.01 µM), 0.625; in assay [2] (first compound 0.03162 µM), 0.716; in assay [2] (first compound 0.1 µM), 0.708. In addition, the relative viability amounted to 0.675 in assay [2] (first compound 0.3162 µM); 0.588 in assay [2] (first compound 1 µM); 0.974 in assay [3] (first compound 0.01 µM); 1.06 in assay [3] (first compound 0.03162 µM); 1.1 in assay [3] (first compound 0.1 µM); 1 in assay [3] (first compound 0.3162 µM). Moreover, the relative viability in assay [3] (first compound 1 µM) was 1.11; in assay [4] (first compound 0.01 µM) it was 1.02; in assay [4] (first compound 0.03162 µM) it was 1.05; in assay [4] (first compound 0.1 µM), 0.804; in assay [4] (first compound 0.3162 µM) it was 0.948; in assay [4] (first compound 1 µM), 1.12.
